Measured values published in patent US10105426B2, “Immunostimulatory combinations” (TRUSTEES OF DARTMOUTH COLLEGE, priority 2002, dated 2018).

Legend:
Format in all cases: in vivo, C57BL6 mice
CD8^+ T cells [1] = experiment: CD8+ T cell expansion with CD40 agonist and different IRM compounds (Example 8); settings: 500 μg ovalbumin + 50 μg FGK4.5 + IRM (500 μg IRM3, 200 μg IRM4, 800 μg IRM5, 800 μg IRM2) i.p.; spleen, day 6; n=3
Procedure: Mice were intraperitoneally injected on day 0 with 500 μg ovalbumin, 50 μg CD40 agonist (FGK4.5), and either 500 μg IRM3, 200 μg IRM4, 800 μg IRM5, 800 μg IRM2, or no IRM (control).

[2] = tested on: ovalbumin-specific CD8^+ T cells; experiment: Expansion of ovalbumin-specific CD8+ T cells after i.v. immunization with ovalbumin peptide (Example 1, MHC tetramer flow cytometry of spleen cells); settings: 100 μg ovalbumin peptide + 100 μg 1C10 anti-CD40 antibody + 200 μg IRM1 i.v., day 5, combination vs either agonist alone
Procedure: Unless otherwise indicated, mice used in the following examples are C57BL6 mice, available from Charles River Laboratories, Inc., Wilmington, Mass.
MHC tetrameric reagent was prepared using a eukaryotic (Baculovirus) expression system as follows/described in Kedl et al., JEM 192(8):1105-1113 (2000).
2-5 Mice were immunized intravenously with (A) 100 μg ovalbumin peptide, (B) 100 μg ovalbumin peptide+100 μg anti-CD40 antibody (1C10), (C) 100 μg ovalbumin peptide+200 μg IRM1, or (D) 100 μg ovalbumin peptide+100 μg 1C10 anti-CD40 antibody+200 μg IRM1. At five days after the immunizations, the spleens were removed from the mice and homogenized. The homogenized cell suspension was stained with a major histocompatibility complex (MHC) tetrameric reagent for detecting ovalbumin-specific T cells (Kedl et al., JEM 192(8):1105-1113 (2000)), a CD8 stain (BD Biosciences Pharmingen, San Diego, Calif.), and a CD44 stain (BD Biosciences Pharmingen, San Diego, Calif.). When subjected to flow cytometry, ovalbumin-specific CD8^+ T cells are shown in the upper right quadrant of the dot plots shown in FIG. 1.

[3] = tested on: ovalbumin-specific CD8^+ T cells; experiment: Expansion kinetics of ovalbumin-specific CD8+ T cells after i.p. immunization with whole ovalbumin (Example 2); settings: 5 mg ovalbumin + 50 μg FGK4.5 anti-CD40 antibody + 220 μg IRM1 i.p.; spleen, days 4-12
Procedure: Mice were intraperitoneally injected with 5 mg ovalbumin (Sigma Chemical Co., St. Louis, Mo.), 50 μg FGK4.5 anti-CD40 antibody, and 220 μg IRM1. Mice were sacrificed on each of days four, five, six, nine, and twelve. The spleens were removed from the sacrificed mice and homogenized. The homogenized cell suspensions were stained and analyzed as described in Example 1. When subjected to flow cytometry, ovalbumin-specific CD8^+ T cells (top) and ovalbumin-specific CD8^+/CD44+ T cells (bottom) were identified and are shown in the upper right quadrant of each dot plot. The numbers in the upper right quadrant indicate the percentage of cells in that quadrant.

[4] = tested on: TRP2-ΔV-specific CD8^+ T cells; experiment: Expansion of TRP2-ΔV-specific CD8+ T cells after i.v. immunization (Example 3); settings: 100 μg FGK4.5 + 200 μg IRM1 + 100 μg TRP2-ΔV peptide i.v.; spleen, day 5
Procedure: Mice were immunized intravenously with 100 μg FGK4.5 anti-CD40 antibody+200 μg IRM1 and either (A) no peptide, (B) 100 μg ovalbumin peptide, or (C) 100 μg TRP2-ΔV peptide. At five days after the immunizations, the spleens were removed from the mice and homogenized. The homogenized cell suspension was stained as in Example 1, except that the MHC tetramer reagent was prepared for detecting TRP2-ΔV-specific T cells. When subjected to flow cytometry, TRP2-ΔV-specific CD8^+ T cells are shown in the upper right quadrant of the dot plots shown in FIG. 3. The numbers in the upper right quadrant indicate the percentage of cells in that quadrant.

CD8^+ memory T cells = experiment: Generation and re-activation of CD8+ memory T cells (Example 4); settings: day 0: 100 μg ovalbumin peptide + 200 μg IRM1 + 100 μg 1C10 i.v.; challenge day 28 with peptide or peptide + 200 μg IRM1; analysis day 33
Procedure: Mice were immunized intravenously on day 0 with 100 μg ovalbumin peptide+200 μg IRM 1+100 μg of 1C10 anti-CD40 antibody. On day 28, the mice were either (A) left unchallenged, (B) challenged intravenously with 100 μg ovalbumin peptide, or (C) challenged intravenously with 100 μg ovalbumin peptide+200 μg IRM1. On day 33, the mice were sacrificed, the spleens removed and spleen cells homogenized. The homogenized cells were stained and analyzed as described in Example 1.

[5] = tested on: melanoma B16ova tumor cells; experiment: Tumor growth after melanoma B16ova challenge, immunization with ovalbumin peptide (Example 6); settings: B16ova intradermal day 0; immunization day 7 with 100 μg ovalbumin peptide + 200 μg IRM + 100 μg 1C10; measured day 21
Procedure: Mice were challenged intradermally on day 0 with 1×10^5 melanoma B16ova tumor cells in PBS (Kedl et al. PNAS 98(19):10811-10816). On day 7, the mice were immunized with either (A) 100 μg ovalbumin peptide, (B) 100 μg ovalbumin peptide+200 μg IRM1, or (C) 100 μg ovalbumin peptide+200 μg IRM1+100 μg 1C10 anti-CD40 antibody. On day 21, the mice were sacrificed and the tumors were measured in two dimensions by caliper.
Mice also were challenged as described above, and immunized as described above except that IRM2 was substituted for IRM1.

[6] = tested on: melanoma B16ova tumor cells; experiment: Tumor growth after melanoma B16ova challenge, immunization with tumor lysate (Example 7); settings: B16ova day 0; immunization day 7 with 1×10^6 CE tumor lysate ± 200 μg IRM1 ± 100 μg FGK4.5; measured days 14 and 20
Procedure: Mice were challenged with tumor on day 0 as in example 6. 5 mice each were immunized on days 7 with 1×10^6 cell equivalents (CE) (A) tumor lysate, (B) 1×10^6 CE tumor lysate+200 μg IRM1, (C) 1×10^6 CE tumor lysate+100 μg FGK4.5 anti-CD40 antibody, or (D)1×10^6 CE tumor lysate+200 μg IRM1+100 μg FGK4.5 anti-CD40 antibody. Tumor sizes were measured on the mice by caliper on days 14 and 20.

CD8^+ T cells [7] = experiment: CD8+ T cell expansion with IRM1 and different TNF/R agonists (Example 9); settings: 1 mg ovalbumin + 200 μg IRM1 + 200 μg TNF/R agonist; spleen, day 6
Procedure: Mice were immunized on day 0 with 1 mg ovalbumin, 200 μg IRM1, and either 200 μg CD40 ligand (FGK4.5), 200 μg 4-1BB ligand (anti-mouse 4-1BB antibody, clone 17B3, eBioscience, San Diego, Calif.), or no TNF/R agonist (control).

`CCOCc1nc2c(N)nc3ccccc3c2n1CC(C)(C)N` [IRM3, 1-(2-amino-2-methylpropyl)-2-(ethoxymethyl)-1H-imidazo[4,5-c]quinolin-4-amine] was tested, and the “Expansion of CD8^+ T cells” value (CD8^+ T cells [1]) was “Synergistic expansion of CD8^+ T cells”.

With `COCCc1nc2c(N)nc3ccccc3c2n1CCOCCN(C)C(=O)N1CCOCC1` [IRM2, N-(2-{2-[4-amino-2-(2-methoxyethyl)-1H-imidazo[4,5-c]quinolin-1-yl]ethoxy}ethyl)-N-methylmorpholine-4-carboxamide] the “Expansion of CD8^+ T cells” value (CD8^+ T cells [1]) was “Synergistic expansion of CD8^+ T cells”.

For `CCc1nc2c(N)nc3ccccc3c2n1CCCCNS(C)(=O)=O` [IRM4, N-[4-(4-amino-2-ethyl-1H-imidazo[4,5-c]quinolin-1-yl)butyl]-methanesulfonamide], the “Expansion of CD8^+ T cells” value (CD8^+ T cells [1]) was “Synergistic expansion of CD8^+ T cells”.

`Cc1nc2c(N)nc3ccccc3c2n1CC(C)(C)O` [IRM1, 4-amino-α,α,2-trimethyl-1H-imidazo[4,5-c]quinolin-1-ethanol] was tested, and the “Expansion of the ovalbumin-specific CD8^+ T cell population” value [2] was “greater than the expansion of the ovalbumin-specific CD8^+ T cell populations after stimulation with either the anti-CD40 antibody or IRM alone”, the “CD8^+ T cell expansion (ovalbumin-specific)” value [3] was “synergistic effect on CD8^+ T cell expansion” and the “Expansion of antigen-specific (TRP2-ΔV) CD8^+ T cells” value [4] was “synergistic expansion of antigen-specific CD8^+ T cells”. The “Generation and re-activation of CD8^+ memory T cells” value (CD8^+ memory T cells) was “generates a pool of long-lived CD8^+ memory T cells that can be reactivated by treatment with IRM and the antigen”, the “Tumor growth (tumor size by caliper)” value [5] was “slower tumor growth than immunization with IRM alone” and the “Tumor growth (tumor size by caliper)” value [6] was “slower tumor growth than immunization with IRM alone or CD40 agonist alone”. The “Expansion of CD8^+ T cells” value (CD8^+ T cells [7]) was “Synergistic expansion of CD8^+ T cells”.

In the case of `CCCc1nc2c(N)nc3ccccc3c2n1CCCCNS(C)(=O)=O` [IRM5, N-[4-(4-amino-2-propyl-1H-imidazo[4,5-c]quinolin-1-yl)butyl]-methanesulfonamide], the “Expansion of CD8^+ T cells” value (CD8^+ T cells [1]) is reported as “Synergistic expansion of CD8^+ T cells”.
